From patent US20230272016A1, “PEPTIDES FOR IMMUNOTHERAPY” (Second Genome, Inc., priority 2020, published 2023)
Entries after “also recorded” stand apart in the source; their conditions may differ.

Tests used:
RENCA tumors = assay: RENCA murine adenocarcinoma syngeneic tumor model; assay type: in vivo, BALB/c mice; conditions: for survival time (days) / tumor volume: peptide 2.5 mg/kg daily peritumorally; for survival time (days): anti-PD-1 10 mg/kg i.p., compared to PBS or anti-PD-1 alone; for tumor volume: anti-PD-1 10 mg/kg intraperitoneal, compared to PBS treated control mice
Procedure: To determine anti-tumor activity of SG-3-00802 in vivo, the RENCA murine adenocarcinoma model was used. It is a syngeneic, standardized experimental model of metastatic RCC. Briefly, BALB/c female mice were inoculated subcutaneously with RENCA cells. Established tumors were treated daily with 2.5 mg/kg SG-3-00802 peritumorally, alone or in combination with intraperitoneal administration of 10 mg/kg anti-PD-1 antibody. […] QD indicates administration of the peptide once a day. BID indicates administration of the peptide twice a day.
Balb/c female mice were implanted with RENCA cells in the left flank. When tumors were established and reach ˜100 mm^3 or 200 mm^3 mice were allocated into dosing groups. Each dosing group had 10-12 animals. Peptides were dosed peritumoral at 2.5 mg/kg BID for 7 d and anti-PD-1 was dosed intraperitoneally at 10 mg/kg TIW for a total of 3 doses. Mice were monitored for tumor growth and survival. Tumor volumes were measured twice a week. A survival event (censoring) was reached when tumor volume reached 1000 mm^3 and additional survival events were defined as animals that had to be euthanized due to ulceration.
Additional studies were performed to test survival and tumor volume responses to a re-challenge event. In one study, mice were allocated into dosing groups when tumors reached ˜100 mm^3. During the initial dosing study, time 0 was the first day of seven days of dosing. […] Re-implantation was completed on day 39 after dosing completion. Treated mice were tumor free for >20 days before being re-challenge. […] Tumor volume and survival was been monitored as previously described. In the re-challenge experiment, time 0 is day 10 after re-challenge dosing.
In the initial dosing experiment, tumor volumes were smaller in both the SG-3-00802 alone treatment and SG-3-00802 with anti-PD-1 antibody combinatorial treatment 40 days after dosing started (FIGS. 32A-32B).
In another re-challenge study, mice were instead allocated into dosing groups when tumors reached ˜200 mm^3. The same procedure as described above was used, except where indicated. […] Re-implantation was completed on day 37 after dosing completion, and time 0 is day 12 post re-challenge. […] In the initial dosing experiment, tumor volumes were smaller in both the SG-3-00802 alone treatment and SG-3-00802 with anti-PD-1 antibody combinatorial treatment 15 days after dosing started (FIGS. 35A-35B).
To determine anti-tumor activity of SG-3-00802 in vivo, the RENCA murine adenocarcinoma model was used. Briefly, BALB/c female mice were inoculated subcutaneously with RENCA cells. Established tumors were treated daily with 2.5 mg/kg SG-3-00802 peritumorally, alone or in combination with intraperitoneal administration of 10 mg/kg anti-PD-1 antibody. […]

SSTR1 = target: T1, SSTR1 (Homo sapiens, UniProt P30872); assay: PathHunter β-Arrestin GPCR assay (gpcrMAX); assay type: cell-based
T1 construct: expressed in transfected cells
T1 sequence (P30872 whole entry): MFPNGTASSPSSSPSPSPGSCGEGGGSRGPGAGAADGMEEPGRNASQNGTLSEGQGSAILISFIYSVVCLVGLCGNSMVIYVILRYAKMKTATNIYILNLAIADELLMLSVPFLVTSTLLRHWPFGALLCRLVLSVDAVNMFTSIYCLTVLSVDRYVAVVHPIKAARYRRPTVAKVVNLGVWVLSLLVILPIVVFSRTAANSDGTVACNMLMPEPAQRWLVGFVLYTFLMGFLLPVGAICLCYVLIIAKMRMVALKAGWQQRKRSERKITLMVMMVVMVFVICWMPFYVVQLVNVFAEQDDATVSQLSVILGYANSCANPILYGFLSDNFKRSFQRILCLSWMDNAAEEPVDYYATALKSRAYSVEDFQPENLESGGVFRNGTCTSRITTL
Source text: The PathHunter® β-Arrestin Assay monitored activation of a panel of 168 G-protein coupled receptors (GPCRs) with […] activation of the GPCR in agonist and antagonist mode.
where the test sample is the peptide, the vehicle control=DMSO (0% activity), and the control ligand=control compound (100% activity).
Peptides SG-3-00802 and SG-3-05021 were identified as an agonist, an antagonist, a PAM (Positive Allosteric Modulator), or an inverse-agonist. Agonist, antagonist, PAM, and inverse-agonist were identified according to the guidelines in Table 18. The basal activity/noise is a % activity of −20% to 20% for both agonist and antagonist modes. A PAM (Positive Allosteric Modulator) binds to a receptor, at a different site than the agonist, to change the receptor's response to the agonist. An inverse-Agonist is a binding partner with agonistic shutting down of basal activity in the cell. An antagonist antagonizes the activity of a particular binding partner.

CXCR3 = target: T2, CXCR3 (Homo sapiens, UniProt P49682); assay: SelectScreen chemokine receptor U2OS agonist/antagonist assay; assay type: cell-based; design: host or cells: CXCR3-bla U2OS; conditions: CXCR3-bla U2OS cells; for SelectScreen Antagonist Mode: control agonist I-TAC (CXCL11) at EC80
T2 sequence (P49682 1-368): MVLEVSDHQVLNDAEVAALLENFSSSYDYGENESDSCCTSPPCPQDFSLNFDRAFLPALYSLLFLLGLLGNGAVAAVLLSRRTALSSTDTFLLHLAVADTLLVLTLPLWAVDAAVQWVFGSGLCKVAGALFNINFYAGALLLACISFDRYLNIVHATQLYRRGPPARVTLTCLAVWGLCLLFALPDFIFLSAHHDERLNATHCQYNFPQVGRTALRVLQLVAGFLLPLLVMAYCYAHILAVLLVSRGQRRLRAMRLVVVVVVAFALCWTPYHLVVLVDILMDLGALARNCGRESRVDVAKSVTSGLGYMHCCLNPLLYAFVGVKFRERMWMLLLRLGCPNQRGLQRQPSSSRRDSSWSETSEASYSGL
Procedure: Peptides SG-3-00802 and SG-3-05021 were screened for agonist and antagonist activity of the chemokine receptors CCR7, CXCR3, and CXCR4.
In agonist assays, chemokine receptor expressing U2OS cells are thawed and resuspended in Assay Media (DMEM, 1% dialyzed FBS, 25 mM HEPES pH 7.3, 0.1 mM NEAA, 100 U/mL/100 μg/mL Pen/Strep) to a concentration of 312,500 cells/mL. 4 μL of a 10×serial dilution of I-TAC (control agonist starting concentration, 500 nM) or compounds are added to appropriate wells of a 384-well TC-Treated assay plate. 32 μL of cell suspension (10,000 cells) is added to each well. 4 μL of Assay Media is added to all wells to bring the final assay volume to 40 μL. The plate is incubated for 16-24 hours at 37° C./5% CO2 in a humidified incubator. 8 μL of 1 μM Substrate+Solution D Loading Solution is added to each well and the plate is incubated for 2 hours at room temperature. The plate is read on a fluorescence plate reader.
In antagonist assays, CXCR3-bla U2OS cells were thawed and prepared as described above for the Agonist assay. 4 μL of 10×compounds or assay media was added to appropriate wells of a TC-Treated assay plate. 32 μL of cell suspension was added to the wells and pre-incubated at 37° C./5% CO2 in a humidified incubator with compounds and control antagonist titration for 30 minutes. 4 μL of 10×control agonist I-TAC at the pre-determined EC80 concentration is added to wells containing the control antagonist or compounds. The plate is incubated for 16-24 hours at 37° C./5% CO2 in a humidified incubator. 8 μL of 1 μM Substrate+Solution D Loading Solution is added to each well and the plate is incubated for 2 hours at room temperature. The plate is read on a fluorescence plate reader.
Activity assays for CXCR4, CXCR3, and CCR7 were performed in agonist and antagonist mode for both SG-3-00802 and SG-3-05021 peptides. […] SG-3-00802 and SG-3-05021 may allow for a mechanism to enhance CXCR3 activation already shown to be a critical pathway in numerous publications as mediating anti-tumor treatment.

| Sequence | survival time (days) (RENCA tumors) | tumor volume (RENCA tumors) | GPCR target assay Interpretation (SSTR1) | SelectScreen Agonist Mode (CXCR3) | SelectScreen Antagonist Mode (CXCR3) | volume of syngeneic RENCA tumors, dose dependence (RENCA tumors; QD or BID administration of the peptide) | # of animals with complete tumor regression out of total animals per group (primary study) (RENCA tumors; Table 16, ~100 mm^3 study) | # of animals without tumor progression out of re-challenged animals per group (re-challenge study) (RENCA tumors; Table 16, ~100 mm^3 study) | # of animals with complete tumor regression out of total animals per group (primary study) (RENCA tumors; Table 17, ~200 mm^3 study) | survival, initial dosing (RENCA tumors; dosing groups allocated at tumors ~100 mm^3) | survival, initial dosing (RENCA tumors; dosing groups allocated at tumors ~200 mm^3) | tumor volumes, initial dosing experiment (RENCA tumors; ~100 mm^3 study, 40 days after dosing started) | percent of mice surviving after re-challenge (RENCA tumors; ~100 mm^3 study, re-implantation on day 39 after dosing completion, opposite flank) | tumor volumes after re-challenge (RENCA tumors; ~100 mm^3 study, vs PBS-treated control mice) | tumor volumes, initial dosing experiment (RENCA tumors; ~200 mm^3 study, 15 days after dosing started) |
| --- | --- | --- | --- | --- | --- | --- | --- | --- | --- | --- | --- | --- | --- | --- | --- |
| LGKTDWIEKYFKVKKEKIDKMQRFLQG [SG-3-05021, peptide from bacteroides.clarus.dsm.22519] | survived a longer time | decrease in tumor volume | Inverse-agonist and PAM | no agonistic activity and No | sensitized CXCR3; also recorded: Sensitizer | – | – | – | – | – | – | – | – | – | – |
| MKVRPSVKPMCEKCKIIRRKGRVMVICENPKHKQRQG [SG-3-00802, peptide from oscillibacter.sp t_155102] | survived a longer time | robust decrease | Inverse-agonist | weak agonistic activity and No | potent reverse antagonistic activity (sensitization); also recorded: sensitized CXCR3; also recorded: Sensitizer | dose-dependent manner | 2/12 | 2/2 | 0/10 | increased survival | increased survival | smaller | increased percent of mice surviving | remained smaller than PBS-treated control mice | smaller |
